From US8283373B2, “Inhibitors of cytosolic phospholipase A2” (Pfizer Inc., priority 2005, dated 2012)
pIC50: −log10 of the molar value.

Columns and labels:
cPLA2α = molecular target: T1, cPLA2α (Homo sapiens, UniProt P47712); test: GLU Micelle Assay; assay type: biochemical
T1 sequence (P47712 1-749): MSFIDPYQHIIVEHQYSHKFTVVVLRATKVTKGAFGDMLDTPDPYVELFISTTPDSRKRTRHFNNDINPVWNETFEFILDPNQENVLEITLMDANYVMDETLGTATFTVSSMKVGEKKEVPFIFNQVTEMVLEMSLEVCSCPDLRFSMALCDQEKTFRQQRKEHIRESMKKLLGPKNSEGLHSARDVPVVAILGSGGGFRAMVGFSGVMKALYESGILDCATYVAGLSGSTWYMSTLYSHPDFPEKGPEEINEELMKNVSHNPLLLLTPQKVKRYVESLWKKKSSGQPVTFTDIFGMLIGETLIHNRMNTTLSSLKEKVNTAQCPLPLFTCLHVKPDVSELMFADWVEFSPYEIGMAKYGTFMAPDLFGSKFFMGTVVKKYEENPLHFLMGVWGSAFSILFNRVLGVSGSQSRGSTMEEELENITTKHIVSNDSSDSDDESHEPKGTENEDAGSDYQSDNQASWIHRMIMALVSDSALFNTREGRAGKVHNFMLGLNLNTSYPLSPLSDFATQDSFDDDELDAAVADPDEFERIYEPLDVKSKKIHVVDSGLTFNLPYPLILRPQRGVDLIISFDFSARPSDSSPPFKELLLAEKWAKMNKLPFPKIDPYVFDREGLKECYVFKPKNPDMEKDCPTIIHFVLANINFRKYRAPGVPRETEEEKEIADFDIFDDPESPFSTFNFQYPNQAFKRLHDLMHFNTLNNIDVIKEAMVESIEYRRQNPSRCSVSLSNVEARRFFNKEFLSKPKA
Procedure, shortened: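 Fluorogenic micelle assay with 1 μg/ml cPLA2α and 90 μM GLU substrate plus 120 μM DTPC in 940 μM Triton X-100, 50 mM Hepes pH 7.4, 0.3 mM EDTA, 1 mM CaCl2, 300 mM KCl. Fluorescence (ex 355/em 460) was read every 4 min for 84 min. Percent inhibition came from slopes relative to positive and negative controls.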

serum thromboxane B2 = test: Thromboxane B2 levels in the ApoE KO mouse model; assay type: in vivo; settings: ApoE KO mice, 3.3 mg/g chow for two days; vehicle 76.1±17.3
Protocol: Blood was collected through the retro-orbital siunus and left to coagulate at 37° C. for one hour. Serum was then isolated and assayed for thromboxane B2 by ELISA.
In a separate experiment, ApoE KO mice were dosed with vehicle or the compound of Example 25 at 10 mg/kg by oral gavage. Blood was collected through the retro-orbital siunus and left to coagulate at 37° C. for one hour. Serum was then isolated and assayed for thromboxane B2 by ELISA.

[1] = system: OVA-induced pulmonary inflammation; test: Rat antigen induced pulmonary inflammation model; assay type: in vivo
Protocol: The efficacy of the compound of Example 10 was evaluated in a Brown Norway rat model in which ovalbumin (OVA)-sensitized animals were challenged via the airways with an aerosol of ovalbumin (OVA) on days 1 and 2. OVA sensitized rats were challenged via aerosol on day 1 and day 2. The compound of Example 10 was administered at 30 mg/kg PO BID 1 hour prior to challenge and 10 hours after challenge over the 2 day challenge period. Dexamethasone was administered at 3 mg/kg IP 1 hour prior to challenge on day 1 and day 2. Animals were sacrificed on day 3 and bronchoalveolar cavities ravaged for analysis of cellular influx.

[2] = system: Ascaris suum antigen-induced bronchoconstriction and AHR; test: Sheep model of antigen-induced early and late-phase bronchoconstriction and AHR; assay type: in vivo
Protocol: In addition to the allergen induced pulmonary inflammation models in rodents, allergen induced changes in lung function are often evaluated in allergic sheep. […] Studies performed in this animal model present strong evidence that the release of arachidonic acid metabolites plays an important role in the development of late bronchial responses to antigen challenge (See Abraham, W. M., et al, Respiration. 1989; 56:48-56). Thus, the compound of Example 10 was evaluated for effects on allergen induced changes in lung function In a sheep model of asthma.
Allergen-induced reversible airway narrowing and AHR are two hallmark features of allergic asthma that can be examined in vivo in a sheep model of asthma. Studies performed in this animal model present strong evidence that the release of arachidonic acid metabolites plays an important role in the development of late bronchial responses to antigen challenge (See Abraham, W. M., et al., Respiration. 1989; 56:48-56). The release of leukotrienes through the LO pathway during the acute bronchial constriction after inhalation of Ascaris suum antigen represents the key factor for the initiation of the subsequent events, namely the late-phase response and the bronchial hyperreactivity. […] In addition, oral administration of a dual LTD4/TXB2 inhibitor can inhibit both the early and late-phase response, as well as AHR to carbachol and histamine (See Abraham, W. M., et al., J Pharmacol Exp Ther. 1988; 247:1004-1011).
The compound of Example 10 was administered at 3 mg/kg BID (PO) 24 h prior to challenge, 2 h prior to challenge and 8 hr post challenge. The mean % increase in airway resistance for 3 individual sheep over the ensuing 8 h period was determined.
The following day, airway hyperresponsiveness (AHR) was assessed in these same treated sheep by determining the cumulative carbachol concentration that increased specific lung resistance by 400%. […] In an extended dosing regimen, compound of Example 10 was administered at 3 mg/kg PO BID for 4 days before challenge, 2 hours before challenge on the fifth day and 8 hr post challenge.

[3] = 3 mg/kg BID PO 24 h and 2 h prior to and 8 hr post challenge
[4] = extended regimen: 3 mg/kg PO BID 4 days before challenge, 2 hours before and 8 hr post

Compound: O=C(O)c1ccc(CCCc2c(CCNS(=O)(=O)Cc3ccccc3C(F)(F)F)n(C(c3ccccc3)c3ccccc3)c3ccc(Cl)cc23)cc1 [Example 10, 4-(3-{5-chloro-1-(diphenylmethyl)-2-[2-({[2-(trifluoromethyl)benzyl]sulfonyl}amino)ethyl]-1H-indol-3-yl}propyl)benzoic acid]
- pIC50 (cPLA2α): 8.05
- serum Thromboxane concentration (serum thromboxane B2): 1.4 ± 0.7 ng/mL
- influx of lymphocytes or neutrophils ([1]; 30 mg/kg PO BID): no significant effect
- total numbers of inflammatory cells within the BALF ([1]; 30 mg/kg PO BID): statistically significantly attenuated
- Bronchoalveolar lavage fluid (BALF) eosinophil influx ([1]; 30 mg/kg PO BID over 2 day challenge, 8 out of 8 independent studies): statistically significantly inhibited
- airway hyperresponsiveness (AHR) to carbachol [2, 3]: complete blockade
- late asthmatic response (airway resistance) [2, 3]: Complete blockade
- AHR to aerosolized carbachol [2, 4]: complete blockade
- early asthmatic response [2, 4]: modest but statistically significant inhibition
- late-phase response [2, 4]: complete blockade
